Source: patent publication EP4420677A1, “VACCINES AGAINST TERT-POSITIVE TUMORS” (Altevax, priority 2023, dated 2024)
Peptide text beside a SMILES is read from it.

Key:
[1] = Peptide stability in solution at pH 7.4 (HPLC peak area vs reference); assay type: physicochemical; details: for Stability of peptides (ratio of the pick area on the indicated day/ pic area of a fresh solution of the same peptide): 7-day incubation in solution at pH7.4, - 20°C; for stability in solution (in words): in solution at physiological pH (pH 7.4)
Procedure: To develop a relevant vaccine, it is necessary to have a proper drug substance stability. To assess stability, the peptides were diluted at à 0,5 mg/mL in water, adjusted at pH 7.4, frozen at -20° C, and analyzed by HPLC (Hypersil GOLD C8 15cm x 4.6mm x 5µm (ThermoFisher) on the indicated day, using an elution buffer CH3CN 15%, TFA 0,1%. The pic area was compared to a reference standard.
Indeed, after 7 days at -20°C, the pic of SEQ ID NO: 4 was reduced by 53%, while SEQ ID NO: 7 was stable (> 95%) for at least 3 months at pH7.4 at -20°C, and at least 7 days at room temperature. Table 4: Stability of peptides after a 7-day incubation period in solution at pH7.4 at different temperature (ratio of the pick area on the indicated day/ pic area of a fresh solution of the same peptide)

[2] = as above; assay type: physicochemical
[3] = assay type: binding; details: pH 7.5
Procedure: L-Dopa alone (0.8mg/ml) was polymerized into melanin for 2h at pH 8.5 and 60°C under agitation. The reaction mixture was then filtered on a 10kDa filter, and the retentate containing the synthetic melanin was resuspended at pH 7.5 in phosphate buffer. Peptides were then added (at the weight ratio melanin/peptide of 2) and the mixtures were incubated for 18 hours at room temperature. Tricine-SDS-PAGE analysis was performed as described in Carpentier; 2017 (op. cit.). Briefly, samples (peptide-Mel or peptide alone) were loaded on acrylamide gels. Following electrophoresis, the gels were stained with Coomassie Brilliant Blue R-250 and imaged with the ChemiDoc XRS+ system (Bio-Rad Laboratory), allowing the quantification of the free peptide in the gel. The binding of peptides to melanin was expressed as the ratio: [amount of unbound peptide in samples Peptide-Mel / amount of peptides in control samples containing peptides alone]. […] Table 3: Binding of peptides on synthetic melanin. L-Dopa (0.8mg/ml) underwent an oxidative polymerization at pH 8.5 in aerobic conditions for 2 hours at 60°C. The reaction mixture was then filtered on a 10kDa filter, and the retentate containing the synthetic melanin was resuspended at pH 7.5. […] The percentage of peptides that bound to melanin was then quantified with SPS-page analysis

[4] = Filterability and precipitation of the mixture peptide + melanin; assay type: physicochemical; details: mixture peptide + melanine in isotonic saline
Source text: Filterability of a medical formulation on a 0.2µ filter is important to achieve a sterile solution.

[5] = 7-day incubation in solution at pH7.4, 4°C
[6] = 7-day incubation in solution at pH7.4, Room temperature

SMILES	Stability of peptides (ratio of the pick area on the indicated day/ pic area of a fresh solution of the same peptide) [1]	Stability of peptides (ratio of the pick area on the indicated day/ pic area of a fresh solution of the same peptide) [2, 5]	Stability of peptides (ratio of the pick area on the indicated day/ pic area of a fresh solution of the same peptide) [2, 6]	stability in solution (in words) [1]	percentage of peptides that bound to melanin [3]	stable (remaining peptide) ([1]; at least 3 months at pH7.4 at -20°C)	stable (remaining peptide) ([1]; at least 7 days at room temperature, pH7.4)	time remaining in suspension [4]
CC[C@H](C)[C@H](NC(=O)CNC(=O)[C@@H](NC(=O)[C@H](CO)NC(=O)[C@H](CCC(N)=O)NC(=O)[C@H](CC(C)C)NC(=O)[C@H](CCCCN)NC(=O)[C@H](CO)NC(=O)[C@H](Cc1c[nH]c2ccccc12)NC(=O)[C@@H](NC(=O)[C@H](CO)NC(=O)[C@@H](N)CCCCN)C(C)C)[C@@H](C)CC)C(=O)N[C@@H](CCCNC(=N)N)C(=O)N[C@@H](CCC(N)=O)C(=O)N[C@@H](Cc1c[nH]cn1)C(=O)O [SEQ ID NO: 1, KSVWSKLQSIGIRQH, reference compound]	100%	98%	92%	–	–	–	–	–
CC[C@H](C)[C@H](NC(=O)CNC(=O)[C@@H](NC(=O)[C@H](CO)NC(=O)[C@H](CCC(N)=O)NC(=O)[C@H](CC(C)C)NC(=O)[C@H](CCCCN)NC(=O)[C@H](CO)NC(=O)[C@H](Cc1c[nH]c2ccccc12)NC(=O)[C@@H](NC(=O)[C@H](CO)NC(=O)[C@H](CCCCN)NC(=O)[C@@H](N)CS)C(C)C)[C@@H](C)CC)C(=O)N[C@@H](CCCNC(=N)N)C(=O)N[C@@H](CCC(N)=O)C(=O)N[C@@H](Cc1c[nH]cn1)C(=O)O [SEQ ID NO: 4, CKSVWSKLQSIGIRQH] (H-CKSVWSKLQSIGIRQH-OH)	47%	–	–	highly unstable	59%	–	–	–
CC[C@H](C)[C@H](NC(=O)CNC(=O)[C@@H](NC(=O)[C@H](CO)NC(=O)[C@H](CCC(N)=O)NC(=O)[C@H](CC(C)C)NC(=O)[C@H](CCCCN)NC(=O)[C@H](CO)NC(=O)[C@H](Cc1c[nH]c2ccccc12)NC(=O)[C@@H](NC(=O)[C@H](CO)NC(=O)[C@H](CCCCN)NC(=O)[C@@H](N)CCSC)C(C)C)[C@@H](C)CC)C(=O)N[C@@H](CCCNC(=N)N)C(=O)N[C@@H](CCC(N)=O)C(=O)N[C@@H](Cc1c[nH]cn1)C(=O)O [SEQ ID NO: 5, MKSVWSKLQSIGIRQH] (H-MKSVWSKLQSIGIRQH-OH)	23%	25%	3%	highly unstable	–	–	–	–
CC[C@H](C)[C@H](NC(=O)CNC(=O)[C@@H](NC(=O)[C@H](CO)NC(=O)[C@H](CCC(N)=O)NC(=O)[C@H](CC(C)C)NC(=O)[C@H](CCCCN)NC(=O)[C@H](CO)NC(=O)[C@H](Cc1c[nH]c2ccccc12)NC(=O)[C@@H](NC(=O)[C@H](CO)NC(=O)[C@H](CCCCN)NC(=O)[C@@H](N)CO)C(C)C)[C@@H](C)CC)C(=O)N[C@@H](CCCNC(=N)N)C(=O)N[C@@H](CCC(N)=O)C(=O)N[C@@H](Cc1c[nH]cn1)C(=O)O [SEQ ID NO: 7, SKSVWSKLQSIGIRQH] (H-SKSVWSKLQSIGIRQH-OH)	100%	100%	100%	very stable	–	> 95%	> 95%	more than 18 hours
